Data from patent EP1247803A2, “Indolinone compounds suitable for modulation of protein kinases” (Sugen, Inc., priority 1996, dated 1998).

Biological target: T1, FLK-1 receptor (Mus musculus, UniProt P35918)
T1 construct: expressed in transfected cells; host or cells: NIH3T3 C7#3
Assay: FLK-1 ELISA (kinase activity of the FLK-1 receptor in FLK-1/NIH3T3 cells, VEGF stimulated)
Format: cell-based
In short: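 NIH3T3 C7#3 cells expressing FLK-1 were seeded at 25.000 cells/well, serum-starved overnight in 0.1% FBS, then treated with compound for two hours at 37°C (final DMSO 0.5%) before VEGF stimulation. Receptor was captured on anti-rabbit IgG-coated ELISA plates bearing affinity-purified anti-FLK-1 antiserum.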

T1 sequence (P35918 20-1345): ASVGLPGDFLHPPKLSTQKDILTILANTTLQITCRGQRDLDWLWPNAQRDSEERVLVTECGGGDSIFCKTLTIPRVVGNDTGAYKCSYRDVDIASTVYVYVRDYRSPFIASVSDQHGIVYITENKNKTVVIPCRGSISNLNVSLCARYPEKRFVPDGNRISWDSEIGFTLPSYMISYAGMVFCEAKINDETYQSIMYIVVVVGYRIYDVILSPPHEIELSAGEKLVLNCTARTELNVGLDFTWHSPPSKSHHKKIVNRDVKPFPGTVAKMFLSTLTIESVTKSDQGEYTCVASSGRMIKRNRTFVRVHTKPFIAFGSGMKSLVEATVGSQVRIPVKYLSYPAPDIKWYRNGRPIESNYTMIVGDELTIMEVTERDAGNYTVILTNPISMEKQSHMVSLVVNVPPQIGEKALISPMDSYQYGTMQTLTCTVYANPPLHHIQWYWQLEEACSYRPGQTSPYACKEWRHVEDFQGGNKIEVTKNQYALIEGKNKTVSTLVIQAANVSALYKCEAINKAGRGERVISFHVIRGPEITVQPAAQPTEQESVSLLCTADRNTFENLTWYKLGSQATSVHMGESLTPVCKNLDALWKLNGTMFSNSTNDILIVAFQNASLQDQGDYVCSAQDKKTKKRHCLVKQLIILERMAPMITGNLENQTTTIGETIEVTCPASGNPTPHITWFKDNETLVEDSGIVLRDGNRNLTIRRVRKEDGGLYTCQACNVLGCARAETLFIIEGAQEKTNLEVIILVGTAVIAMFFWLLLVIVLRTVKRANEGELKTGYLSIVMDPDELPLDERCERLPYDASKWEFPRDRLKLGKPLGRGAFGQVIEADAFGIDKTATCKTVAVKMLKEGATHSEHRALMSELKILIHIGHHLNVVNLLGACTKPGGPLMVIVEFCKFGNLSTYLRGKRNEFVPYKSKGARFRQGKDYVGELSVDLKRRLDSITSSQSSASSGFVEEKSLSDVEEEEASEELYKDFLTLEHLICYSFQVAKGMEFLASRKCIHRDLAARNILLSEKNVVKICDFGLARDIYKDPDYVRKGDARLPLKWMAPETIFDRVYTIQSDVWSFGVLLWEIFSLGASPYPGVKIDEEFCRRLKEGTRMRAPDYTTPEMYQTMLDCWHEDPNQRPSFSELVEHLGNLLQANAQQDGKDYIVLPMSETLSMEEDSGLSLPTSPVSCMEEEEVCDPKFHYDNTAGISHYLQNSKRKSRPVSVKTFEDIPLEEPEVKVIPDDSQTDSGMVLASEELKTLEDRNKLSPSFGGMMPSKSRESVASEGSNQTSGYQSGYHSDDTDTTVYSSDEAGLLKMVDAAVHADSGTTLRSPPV

SMILES | Fik Kinase %Inhibition [%]
O=C1Nc2ccc(S(=O)(=O)N3CCOCC3)cc2C1=Cc1ccc(Cl)c([N+](=O)[O-])c1 [10718/F08] | 15.3
CCOc1cccc(C=C2C(=O)Nc3ccc(S(=O)(=O)N4CCOCC4)cc32)c1O [10734/F02] | 6.2
O=C1Nc2ccc(S(=O)(=O)N3CCOCC3)cc2C1=Cc1cc(Br)cc(Br)c1O [10734/F07] | 6.6
CCc1c(C)[nH]c(C=C2C(=O)Nc3ccc(Br)c(C)c32)c1C [10719/C05] | 25.6
CCOC(=O)CCc1c(C(=O)OCC)[nH]c(C=C2C(=O)Nc3ccc(S(=O)(=O)N4CCOCC4)cc32)c1CC(=O)OCC [10718/F05] | 19.5
CCOc1cccc(C=C2C(=O)Nc3ccc(CCCl)cc32)c1O [10734/G02] | 1.5
O=C1Nc2c(Br)cc(Br)cc2C1=Cc1ccc(F)cc1Cl [10719/A09] | 12.3
O=C1Nc2ccc(S(=O)(=O)N3CCOCC3)cc2C1=Cc1ccc(O)c(Br)c1 [10734/F09] | -3.7
CCOC(=O)c1cc(C=C2C(=O)Nc3ccc(S(=O)(=O)N4CCOCC4)cc32)oc1C [10718/F06] | 18.3
O=C1Nc2ccc(CCCl)cc2C1=Cc1ccc([N+](=O)[O-])o1 [10718/G11] | 15.6
CCN(CC)c1ccc(C=C2C(=O)Nc3ccc(S(=O)(=O)Nc4ccc(C(F)(F)F)cc4)cc32)c(O)c1 [10734/E05] | 10.6
O=C1Nc2ccc(CCCl)cc2C1=Cc1cccc(F)c1O [10734/G08] | 11.6
O=C1Nc2ccc(S(=O)(=O)N3CCOCC3)cc2C1=Cc1ccc2ccccc2c1O [10718/F04] | 9.4
CCc1c(C)[nH]c(C=C2C(=O)Nc3c(Br)cc(Br)cc32)c1C [10719/A05] | 10.0
O=C1Nc2c(Br)cc(Br)cc2C1=Cc1ccc(O)c(O)c1 [10719/A03] | 3.9
COc1cc(OC)c(C=C2C(=O)Nc3ccc(Br)c(C)c32)c(OC)c1 [10719/C06] | 47.7
O=C1Nc2ccc(I)cc2C1=Cc1c[nH]c2ccccc12 [10717/B06] | 5.4
CCOc1ccccc1C=C1C(=O)Nc2ccc(I)cc21 [10717/B02] | 5.0
COc1ccc(C=C2C(=O)Nc3ccc(I)cc32)c(OC)c1 [10719/B04] | 24.9
O=C1Nc2ccc(I)cc2C1=Cc1ccc(O)cc1 [10719/B07] | 12.5

SMILES | Fik Kinase %Inhibition [%]
CN(C)c1ccc(C=C2C(=O)Nc3ccc(I)cc32)cc1 [10719/B08] | 4.0
O=C1Nc2ccc(I)cc2C1=Cc1cccc([N+](=O)[O-])c1 [10719/B10] | 1.1
O=C1Nc2ccc(CCCl)cc2C1=Cc1ccc(Cl)c([N+](=O)[O-])c1 [10718/G08] | 6.1
CCOc1ccc(C=C2C(=O)Nc3ccc(I)cc32)cc1OC [10719/B02] | 11.5
O=C1Nc2ccc(S(=O)(=O)N3CCOCC3)cc2C1=Cc1ccco1 [10718/F10] | 17.9
CCOC(=O)c1cc(C=C2C(=O)Nc3ccc(CCCl)cc32)oc1C [10718/G06] | 9.8
O=C1Nc2ccc(I)cc2C1=Cc1ccc(F)cc1 [10717/B05] | 1.0
O=C1Nc2ccc(I)cc2C1=Cc1ccc(O)c(O)c1 [10719/B03] | 14.2
Cc1c(O)ccc(C=C2C(=O)Nc3ccc(S(=O)(=O)N4CCOCC4)cc32)c1O [10718/F09] | -3.0
O=C1Nc2ccc(I)cc2C1=Cc1ccc(F)cc1C(F)(F)F [10719/B11] | 11.2
O=C1Nc2c(Br)cc(Br)cc2C1=Cc1cccc([N+](=O)[O-])c1 [10719/A10] | 10.9
O=C1Nc2ccc(I)cc2C1=Cc1ccc(F)cc1Cl [10719/B09] | 11.3
CCc1c(C)[nH]c(C=C2C(=O)Nc3ccc(I)cc32)c1C [10719/B05] | 17.7
O=C1Nc2ccc(I)cc2C1=Cc1cccs1 [10717/B03] | -8.8
O=C1Nc2ccc(CCCl)cc2C1=Cc1ccc2ccccc2c1O [10718/G04] | 1.8
COc1ccc(C=C2C(=O)Nc3ccc(Br)c(C)c32)c(OC)c1 [10719/C04] | 59.9
COc1ccc(C=C2C(=O)Nc3c(Br)cc(Br)cc32)c(OC)c1 [10719/A04] | 19.2
Cc1c(Br)ccc2c1C(=Cc1ccc(O)cc1)C(=O)N2 [10719/C07] | 31.2
CCOc1ccc(C=C2C(=O)Nc3c(Br)cc(Br)cc32)cc1OC [10719/A02] | 21.4
CN(C)c1ccc(C=C2C(=O)Nc3c(Br)cc(Br)cc32)cc1 [10719/A08] | 11.9

SMILES | Fik Kinase %Inhibition [%]
COC(=O)c1[nH]c(C)c(C=C2C(=O)Nc3ccc(CCCl)cc32)c1C(=O)OC [10718/G07] | 11.4
O=C1Nc2ccc(CCCl)cc2C1=Cc1ccco1 [10718/G10] | 7.1
Cn1cccc1C=C1C(=O)Nc2ccc(I)cc21 [10717/B04] | -18.3
Cc1c(O)ccc(C=C2C(=O)Nc3ccc(CCCl)cc32)c1O [10718/G09] | -12.8
COc1cc(OC)c(C=C2C(=O)Nc3ccc(I)cc32)c(OC)c1 [10719/B06] | 21.3
COc1cc(Br)c(O)c(C=C2C(=O)Nc3ccc(CCCl)cc32)c1 [10718/G03] | -4.7
COc1cc(OC)c(C=C2C(=O)Nc3c(Br)cc(Br)cc32)c(OC)c1 [10719/A06] | 14.0
COc1cc(Br)c(O)c(C=C2C(=O)Nc3ccc(S(=O)(=O)N4CCOCC4)cc32)c1 [10718/F03] | -0.2
CCOC(=O)CCc1c(C(=O)OCC)[nH]c(C=C2C(=O)Nc3ccc(CCCl)cc32)c1CC(=O)OCC [10718/G05] | 3.7
CCOC(=O)c1c(C)[nH]c(C=C2C(=O)Nc3ccc(S(=O)(=O)N4CCOCC4)cc32)c1C [10718/F02] | 20.1
Cc1c(Br)ccc2c1C(=Cc1ccc(F)cc1Cl)C(=O)N2 [10719/C09] | 23.5
Cc1c(Br)ccc2c1C(=Cc1ccc(O)c(O)c1)C(=O)N2 [10719/C03] | 15.3
COC(=O)c1[nH]c(C)c(C=C2C(=O)Nc3ccc(S(=O)(=O)N4CCOCC4)cc32)c1C(=O)OC [10718/F07] | 16.5
Cc1c(Br)ccc2c1C(=Cc1ccc(N(C)C)cc1)C(=O)N2 [10719/C08] | 15.0
CCOC(=O)c1c(C)[nH]c(C=C2C(=O)Nc3ccc(CCCl)cc32)c1C [10718/G02] | -2.5
O=C1Nc2c(Br)cc(Br)cc2C1=Cc1ccc(F)cc1C(F)(F)F [10719/A11] | 7.4
CCOc1ccc(C=C2C(=O)Nc3ccc(Br)c(C)c32)cc1OC [10719/C02] | 4.1
O=C1Nc2ccc(S(=O)(=O)N3CCOCC3)cc2C1=Cc1ccc([N+](=O)[O-])o1 [10718/F11] | 10.1
O=C1Nc2c(Br)cc(Br)cc2C1=Cc1ccc(O)cc1 [10719/A07] | 21.3

Biological target: PDGF-R (Homo sapiens, UniProt P09619)
Sequence (P09619 33-1106, species assumed): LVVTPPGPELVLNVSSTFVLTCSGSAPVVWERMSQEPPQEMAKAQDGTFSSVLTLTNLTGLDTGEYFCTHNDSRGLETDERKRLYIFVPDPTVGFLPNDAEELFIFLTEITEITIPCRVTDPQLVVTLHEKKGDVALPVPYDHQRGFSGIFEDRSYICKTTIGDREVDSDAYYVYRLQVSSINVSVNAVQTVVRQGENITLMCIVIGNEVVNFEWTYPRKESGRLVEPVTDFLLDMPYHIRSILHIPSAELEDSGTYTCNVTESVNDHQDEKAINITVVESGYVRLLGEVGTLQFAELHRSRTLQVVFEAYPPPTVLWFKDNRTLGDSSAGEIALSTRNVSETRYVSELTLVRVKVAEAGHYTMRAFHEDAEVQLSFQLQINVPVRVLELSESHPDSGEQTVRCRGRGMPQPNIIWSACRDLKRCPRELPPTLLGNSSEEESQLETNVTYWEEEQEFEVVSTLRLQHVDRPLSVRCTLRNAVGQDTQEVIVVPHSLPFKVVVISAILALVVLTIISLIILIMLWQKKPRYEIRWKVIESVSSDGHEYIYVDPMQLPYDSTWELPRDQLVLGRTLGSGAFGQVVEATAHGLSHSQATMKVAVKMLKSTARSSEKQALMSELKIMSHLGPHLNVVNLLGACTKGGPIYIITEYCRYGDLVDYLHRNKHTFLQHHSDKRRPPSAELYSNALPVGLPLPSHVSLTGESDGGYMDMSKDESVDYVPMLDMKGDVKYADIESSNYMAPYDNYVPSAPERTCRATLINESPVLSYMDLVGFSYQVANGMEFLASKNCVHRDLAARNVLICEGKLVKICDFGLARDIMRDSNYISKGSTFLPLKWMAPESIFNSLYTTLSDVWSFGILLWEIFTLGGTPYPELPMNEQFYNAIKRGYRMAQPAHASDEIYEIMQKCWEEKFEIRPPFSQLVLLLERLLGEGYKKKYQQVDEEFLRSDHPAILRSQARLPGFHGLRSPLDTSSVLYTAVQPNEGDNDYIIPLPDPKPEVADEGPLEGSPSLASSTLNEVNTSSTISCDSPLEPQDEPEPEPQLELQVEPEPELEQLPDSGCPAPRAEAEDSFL
Assay: PDGF-R ELISA
Format: cell-based
Excerpt: A PDGF-R ELISA is described in International Patent Publication No. WO 96/40116, published December 19, 1996 by Tang et al.

SMILES | PDGF Kinase %Inhibition [%]
CCOc1cccc(C=C2C(=O)Nc3ccc(S(=O)(=O)N4CCOCC4)cc32)c1O [10734/F02] | 10.4
O=C1Nc2ccc(S(=O)(=O)N3CCOCC3)cc2C1=Cc1cc(Br)cc(Br)c1O [10734/F07] | -5.1
CCOc1cccc(C=C2C(=O)Nc3ccc(CCCl)cc32)c1O [10734/G02] | 14.8
O=C1Nc2ccc(S(=O)(=O)N3CCOCC3)cc2C1=Cc1ccc(O)c(Br)c1 [10734/F09] | -17.4
CCN(CC)c1ccc(C=C2C(=O)Nc3ccc(S(=O)(=O)Nc4ccc(C(F)(F)F)cc4)cc32)c(O)c1 [10734/E05] | 17.9
O=C1Nc2ccc(CCCl)cc2C1=Cc1cccc(F)c1O [10734/G08] | 0.2
